From patent US20240425479A1, “HALO-SUBSTITUTED AMINO AZA-HETEROARYL COMPOUNDS AS INHIBITORS OF THE HAEMATOPOIETIC PROGENITOR KINASE 1 (HPK1)” (priority 2021, published 2024)

The compounds below were run against T1, Recombinant (1-346) HPK1 (h) (Homo sapiens, UniProt Q92918) (assay: HPK1 human STE kinase enzymatic radiometric assay). Conditions: read-out: HPK1 IC50 nM Range.
T1 construct: Recombinant (1-346) HPK1 (h) is incubated with 8 mM MOPS pH 7.0
T1 sequence (Q92918 1-346): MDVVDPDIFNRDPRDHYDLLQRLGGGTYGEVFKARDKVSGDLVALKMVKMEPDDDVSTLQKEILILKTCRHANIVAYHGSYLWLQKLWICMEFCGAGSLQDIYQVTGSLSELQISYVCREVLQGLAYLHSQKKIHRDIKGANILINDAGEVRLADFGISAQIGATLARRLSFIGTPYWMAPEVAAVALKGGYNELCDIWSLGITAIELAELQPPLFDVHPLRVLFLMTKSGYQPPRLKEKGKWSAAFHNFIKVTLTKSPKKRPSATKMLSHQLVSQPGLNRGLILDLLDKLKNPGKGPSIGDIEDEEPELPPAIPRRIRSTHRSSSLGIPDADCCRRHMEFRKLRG
Assay type: biochemical
Experimental: (a) HPK1 Human STE Kinase Enzymatic Radiometric Assay
A stock solution of 10 mM of test compound is prepared in DMSO. The compound plate was prepared by 3-fold and 9-point serial dilutions. Recombinant (1-346) HPK1 (h) is incubated with 8 mM MOPS pH 7.0, 0.2 mM EDTA, 0.33 mg/mL myelin basic protein, 10 mM MgAcetate and [gamma-33P]-ATP (specific activity and concentration as required). The reaction is initiated by the addition of the Mg/ATP mix. After incubation for 40 minutes at RT, the reaction is stopped by the addition of phosphoric acid to a concentration of 0.5%, 10 μL of the reaction is then spotted onto a P30 filtermat and washed four times for 4 minutes in 0.425% phosphoric acid and once in methanol prior to drying and scintillation counting. For more details of kinase assay protocols, see: Gao, Y. et. al.; Biochem J.451 (2): 313-328, 2013.
`Nc1nc(F)c(-c2ccc(N3CCN(CCCC(F)F)CC3)cc2)nc1-c1cc(F)c2c(c1)CCNC2=O` [Example I-137, 6-(3-amino-6-(4-(4-(4,4-difluorobutyl)piperazin-1-yl)phenyl)-5-fluoropyrazin-2-yl)-8-fluoro-3,4-dihydroisoquinolin-1(2H)-one] showed an IC50 of 0.1 to 10 nM.
For `CO[C@H]1CCN(Cc2cc(-c3nc(-c4cc(F)c5c(c4)CCNC5=O)c(N)nc3F)ccc2N2CCOCC2)C1` [Example I-158, (S)-6-(3-amino-5-fluoro-6-(3-((3-methoxypyrrolidin-1-yl)methyl)-4-morpholinophenyl)pyrazin-2-yl)-8-fluoro-3,4-dihydroisoquinolin-1(2H)-one], the IC50 was 0.1 to 10 nM.
With `Cc1[nH]c(=O)c2c(F)cc(-c3nc(-c4ccc(N5CCN(CC6CC6)CC5)cc4)c(F)nc3N)cc2c1F` [Example I-115, 6-(3-amino-6-(4-(4-(cyclopropylmethyl)piperazin-1-yl)phenyl)-5-fluoropyrazin-2-yl)-4,8-difluoro-3-methylisoquinolin-1(2H)-one] the IC50 was 0.1 to 10 nM.
In the case of `CN1CC2(CCN(c3ccc(-c4nc(-c5cc6c(cc5F)C(=O)NCC6)c(N)nc4F)cc3)CC2)C1` [Example I-61, 6-(3-amino-5-fluoro-6-(4-(2-methyl-2,7-diazaspiro[3.5]nonan-7-yl)phenyl)pyrazin-2-yl)-7-fluoro-3,4-dihydroisoquinolin-1(2H)-one], the IC50 is reported as 0.1 to 10 nM.
Work on `Cc1c[nH]c(=O)c2ccc(-c3nc(-c4ccc(O)c(CN(C)C)c4)c(F)nc3N)cc12` [Example I-306, 6-(3-amino-6-(3-((dimethylamino)methyl)-4-hydroxyphenyl)-5-fluoropyrazin-2-yl)-4-methylisoquinolin-1(2H)-one] yielded an IC50 of 11 to 100 nM.
In the case of `Cc1[nH]c(=O)c2ccc(-c3nc(-c4ccc(N5CCOCC5)c(CN(C)C)c4)c(F)nc3N)cc2c1F` [Example I-101, 6-(3-amino-6-(3-((dimethylamino)methyl)-4-morpholinophenyl)-5-fluoropyrazin-2-yl)-4-fluoro-3-methylisoquinolin-1(2H)-one], the IC50 is reported as 0.1 to 10 nM.
`CN(C)Cc1cc(-c2nc(-c3cc(F)c4c(c3)CCNC4=O)c(N)nc2F)ccc1N1CCOCC1` [Example I-88, 6-(3-amino-6-(3-((dimethylamino)methyl)-4-morpholinophenyl)-5-fluoropyrazin-2-yl)-8-fluoro-3,4-dihydroisoquinolin-1(2H)-one] was tested, and the IC50 was 11 to 100 nM.
`C[C@H]1CCCN1Cc1cc(-c2nc(-c3ccc4c(c3)C(F)(F)CNC4=O)c(N)nc2F)ccc1C1CCOCC1` [Example I-233, (S)-6-(3-amino-5-fluoro-6-(3-((2-methylpyrrolidin-1-yl)methyl)-4-(tetrahydro-2H-pyran-4-yl)phenyl)pyrazin-2-yl)-4,4-difluoro-3,4-dihydroisoquinolin-1(2H)-one] was tested, and the IC50 was 0.1 to 10 nM.
`Nc1nc(F)c(-c2ccc(N3CCOCC3)c(CN3CCC3)c2)nc1-c1ccc2c(=O)[nH]cc(F)c2c1` [Example I-199, 6-(3-amino-6-(3-(azetidin-1-ylmethyl)-4-morpholinophenyl)-5-fluoropyrazin-2-yl)-4-fluoroisoquinolin-1(2H)-one] was tested, and the IC50 was 0.1 to 10 nM.
Work on `COCCN(C)Cc1cc(-c2nc(-c3cc(F)c4c(c3)CCNC4=O)c(N)nc2F)ccc1N1CCOCC1` [Example I-162, 6-(3-amino-5-fluoro-6-(3-(((2-methoxyethyl)(methyl)amino)methyl)-4-morpholinophenyl)pyrazin-2-yl)-8-fluoro-3,4-dihydroisoquinolin-1(2H)-one] yielded an IC50 of 0.1 to 10 nM.
In the case of `Nc1nc(F)c(-c2ccc(C3CCOCC3)c(CN3CCC3)c2)nc1-c1ccc2c(c1)CCNC2=O` [Example I-169, 6-(3-amino-6-(3-(azetidin-1-ylmethyl)-4-(tetrahydro-2H-pyran-4-yl)phenyl)-5-fluoropyrazin-2-yl)-3,4-dihydroisoquinolin-1(2H)-one], the IC50 is reported as 0.1 to 10 nM.
In the case of `Cc1[nH]c(=O)c2ccc(-c3nc(-c4ccc(N5CCOCC5)c(CN(C)C)c4)c(F)nc3N)cc2c1Cl` [Example I-124, 6-(3-amino-6-(3-((dimethylamino)methyl)-4-morpholinophenyl)-5-fluoropyrazin-2-yl)-4-chloro-3-methylisoquinolin-1(2H)-one], the IC50 is reported as 0.1 to 10 nM.
`CN(C)Cc1cc(-c2nc(-c3ccc4c(c3)CCNC4=O)c(N)nc2F)ccc1N1CCSCC1` [Example I-128, 6-(3-amino-6-(3-((dimethylamino)methyl)-4-thiomorpholinophenyl)-5-fluoropyrazin-2-yl)-3,4-dihydroisoquinolin-1(2H)-one] was tested, and the IC50 was 0.1 to 10 nM.
For `Cc1cc(-c2nc(-c3ccc4c(c3)CCNC4=O)c(N)nc2F)cc2c1CCN(C)C2` [Example I-294, 6-(3-amino-6-(2,5-dimethyl-1,2,3,4-tetrahydroisoquinolin-7-yl)-5-fluoropyrazin-2-yl)-3,4-dihydroisoquinolin-1(2H)-one], the IC50 was 0.1 to 10 nM.
Compound `Cc1cc(-c2nc(-c3ccc4c(=O)[nH]cc(C)c4c3)c(N)nc2F)cc2c1CCN(C)C2` [Example I-295, 6-(3-amino-6-(2,5-dimethyl-1,2,3,4-tetrahydroisoquinolin-7-yl)-5-fluoropyrazin-2-yl)-4-methylisoquinolin-1(2H)-one] has an IC50 of 11 to 100 nM.
With `Nc1nc(F)c(-c2ccc(N3CCN(C4CCC4)CC3)cc2)nc1-c1ccc2c(c1)CCNC2=O` [Example I-49, 6-(3-amino-6-(4-(4-cyclobutylpiperazin-1-yl)phenyl)-5-fluoropyrazin-2-yl)-3,4-dihydroisoquinolin-1(2H)-one] the IC50 was 0.1 to 10 nM.
`C[C@@H]1CN(c2ccc(-c3nc(-c4cc(F)c5c(c4)CCNC5=O)c(N)nc3F)cc2CN(C)C)C[C@H](C)O1` [Example I-197, 6-(3-amino-6-(3-((dimethylamino)methyl)-4-((2R,6S)-2,6-dimethylmorpholino)phenyl)-5-fluoropyrazin-2-yl)-8-fluoro-3,4-dihydroisoquinolin-1(2H)-one] showed an IC50 of 0.1 to 10 nM.
`CCN(C)Cc1c(N2CCOCC2)ccc(-c2nc(-c3cc4c(cc3F)C(=O)NCC4)c(N)nc2F)c1F` [Example I-246, 6-(3-amino-6-(3-((ethyl(methyl)amino)methyl)-2-fluoro-4-morpholinophenyl)-5-fluoropyrazin-2-yl)-7-fluoro-3,4-dihydroisoquinolin-1(2H)-one] was tested, and the IC50 was 11 to 100 nM.
With `CN1CCN(c2ccc(-c3nc(-c4cc5c(cc4F)C(=O)NCC5)c(N)nc3F)cc2)CC1` [Example I-54, 6-(3-amino-5-fluoro-6-(4-(4-methylpiperazin-1-yl)phenyl)pyrazin-2-yl)-7-fluoro-3,4-dihydroisoquinolin-1(2H)-one] the IC50 was 0.1 to 10 nM.
`C[C@H]1CN(c2ccc(-c3nc(-c4cc(F)c5c(c4)CCNC5=O)c(N)nc3F)cc2CN2CCC2)CCO1` [Example I-216, (S)-6-(3-amino-6-(3-(azetidin-1-ylmethyl)-4-(2-methylmorpholino)phenyl)-5-fluoropyrazin-2-yl)-8-fluoro-3,4-dihydroisoquinolin-1(2H)-one] was tested, and the IC50 was 11 to 100 nM.
Work on `CN(C)Cc1c(N2CCOCC2)ccc(-c2nc(-c3cc4c(cc3F)C(=O)NCC4)c(N)nc2F)c1F` [Example I-241, 6-(3-amino-6-(3-((dimethylamino)methyl)-2-fluoro-4-morpholinophenyl)-5-fluoropyrazin-2-yl)-7-fluoro-3,4-dihydroisoquinolin-1(2H)-one] yielded an IC50 of 11 to 100 nM.
Compound `Nc1nc(F)c(-c2ccc(OC3CCOCC3)c(CN3CCC3)c2)nc1-c1cc2c(cc1F)C(=O)NCC2` [Example I-209, 6-(3-amino-6-(3-(azetidin-1-ylmethyl)-4-((tetrahydro-2H-pyran-4-yl)oxy)phenyl)-5-fluoropyrazin-2-yl)-7-fluoro-3,4-dihydroisoquinolin-1(2H)-one] has an IC50 of 11 to 100 nM.
Work on `COC1CCN(Cc2cc(-c3nc(-c4ccc5c(c4)CCNC5=O)c(N)nc3F)ccc2N2CCOCC2)CC1` [Example I-138, 6-(3-amino-5-fluoro-6-(3-((4-methoxypiperidin-1-yl)methyl)-4-morpholinophenyl)pyrazin-2-yl)-3,4-dihydroisoquinolin-1(2H)-one] yielded an IC50 of 11 to 100 nM.
Compound `CN(C)[C@@H]1COc2ccc(-c3nc(-c4ccc5c(c4)C(F)(F)CNC5=O)c(N)nc3F)cc21` [Example I-256, (S)-6-(3-amino-6-(3-(dimethylamino)-2,3-dihydrobenzofuran-5-yl)-5-fluoropyrazin-2-yl)-4,4-difluoro-3,4-dihydroisoquinolin-1(2H)-one] has an IC50 of 0.1 to 10 nM.
For `CN(C)[C@@H]1COc2ccc(-c3nc(-c4ccc5c(=O)[nH]ccc5c4)c(N)nc3F)cc21` [Example I-283, (S)-6-(3-amino-6-(3-(dimethylamino)-2,3-dihydrobenzofuran-5-yl)-5-fluoropyrazin-2-yl)isoquinolin-1(2H)-one], the IC50 was 11 to 100 nM.
With `CN(C)Cc1cc(-c2nc(-c3cc4c(cc3F)C(=O)NCC4)c(N)nc2F)ccc1N1CCOCC1` [Example I-65, 6-(3-amino-6-(3-((dimethylamino)methyl)-4-morpholinophenyl)-5-fluoropyrazin-2-yl)-7-fluoro-3,4-dihydroisoquinolin-1(2H)-one] the IC50 was 0.1 to 10 nM.
